Columns and labels:
TLR8 = TLR8 mRNA expression in primary human macrophages incubated with autologous serum; format: cell-based; conditions: primary human macrophages of healthy donors, 24 h
Method: RNA was quantitated using a NanoDrop 1000 spectrophotometer (NanoDrop Products, Wilmington, DE). cDNA was synthesized using High Capacity cDNA Reverse Transcription Kit (Applied Biosystems, Foster City, CA) following the manufacturer's protocol and qPCR was performed using the TaqMan system (Applied Biosystems) using cDNA and gene specific primers in accordance with the manufacturer's protocol.
(§1) To target autologous EVs containing miR-21, primary human PBMCs were isolated from whole blood as indicated above, incubated in the presence of 20% autogolous serum, and treated with locked nucleic acid (LNA) sequences designed to antagonize miR-21 (Exiqon, Vedbaek, Denmark) following liposomal complexing with DOTAP (Roche) according to the manufacturer's protocol.

STAT1 = STAT1 mRNA transcript expression (qPCR) in hematopoietic cell lines THP-1 and K562; conditions: THP-1 cells, separate hormone treatments, normalized to untreated cells
THP-1 cells = test: Nanoparticle tracking analysis of extracellular vesicle production by THP-1 cells; format: cell-based, human
Method: as §1
The NanoSight LM 10 system (NanoSight, Wiltshire, United Kingdom) was used to measure the rate of Brownian motion of particles to determine the size and quantification of EVs. Briefly, the sample was injected in a NanoSight cubicle and the size of particles was obtained by determining the motion in fluid passing across the chamber. The number of particles per milliliter was measured from a 0-160 nm range and was acquired from both experimental and control samples for comparison using area under the curve calculations obtained via the linear trapezoidal analysis method.

IL-12 = IL-12 secretion of THP-1 cells (ELISA); format: cell-based, human; conditions: 24 h
IL-13 = IL-13 secretion of THP-1 cells (ELISA); format: cell-based, human; conditions: 24 h

LNA antagomiR-21: locked nucleic acid sequence designed to block miR-21, in liposomal complexes with DOTAP; CAACATCAGTCTGATAAGCT (LNA-modified, pattern not given here, delivered in liposomal complexes)
reduction of TLR8 mRNA expression relative to LNA-control (TLR8): 46%

CCN(CC)CCCC(C)Nc1ccnc2cc(Cl)ccc12 (centres unmarked) [Chloroquine, chloroquine]
reduction of TLR8 mRNA expression relative to LNA-control (TLR8): over 95%

C[C@]12CCC(=O)C[C@@H]1CC[C@@H]1[C@@H]2CC[C@]2(C)[C@@H](O)CC[C@@H]12 [dihydrotestosterone, 5α-androstatin-17β-ol-one]
hormonal influence on STAT1 expression (STAT1): hormonal influence was only observed with estrogen treatment

CC(=O)[C@H]1CC[C@H]2[C@@H]3CCC4=CC(=O)CC[C@]4(C)[C@H]3CC[C@]12C [progesterone]
hormonal influence on STAT1 expression (STAT1): hormonal influence was only observed with estrogen treatment

CCOCc1nc2c(N)nc3ccccc3c2n1CC(C)(C)O [R-848]
cumulative extracellular particle profiles (0-160 nm, area under the curve) relative to miR-control (THP-1 cells): 3.7 fold | IL-12 expression induced compared to control treatment (IL-12): 5 fold | IL-13 expression upregulated relative to miR-control pseudoexosomes (IL-13): 1.75 fold

B1: prolactin: hormone prolactin (Sigma), 10 ng/mL (protein, UniProt P01236 29-227, looked up)
Prolactin: LPICPGGAARCQVTLRDLFDRAVVLSHYIHNLSSEMFSEFDKRYTHGRGFITKAINSCHTSSLATPEDKEQAQQMNQKDFLSLIVSILRSWNEPLYHLVTEVRGMQEAPEAILSKAVEIEEQTKRLLEGMELIVSQVHPETKENEIYPVWSGLPSLQMADEESRLSAYYNLLHCLRRDSHKIDNYLKLLKCRIIHNNNC
hormonal influence on STAT1 expression (STAT1): hormonal influence was only observed with estrogen treatment

Reference: patent US12016314B2, “MicroRNA inhibitor therapy in systemic lupus erythematosus” (Ohio State Innovation Foundation, priority 2017, dated 2024)
